Test results from article PMC9180926, “Discovery of Novel 3-Hydroxyquinazoline-2,4(1H,3H)-Dione Derivatives: A Series of Metal Ion Chelators with Potent Anti-HCV Activities” (International Journal of Molecular Sciences, 2022).
“Also recorded” adds a separate entry of the source. Read-outs that look alike come from different tables or passages of the source.

Experiments:
HCV = details: cited from earlier work
[1] = tested on: HCV 1b replicon cells (Huh-7.5.1); test: Anti-HCV assay, HCV 1b replicon cells with luciferase reporter; type: cell-based, hepatitis C virus (HCV) subtype 1b; details: HCV 1b replicon cells; for EC50: mean ± SD; for inhibition at 10 µM / inhibition at 25 µM: Huh-7.5.1, 72 h, 72 h; for inhibition at 10 µM: inhibitory rate at 10 μM, read-out: HCV Inhibition 10 μM; for inhibition at 25 µM: inhibitory rate at 25 μM, read-out: HCV Inhibition 25 μM
Description: (§1) The HCV replicons were validated as convenient and effective models for testing the anti-HCV activity. Since HCV subtype 1b is one of the major subtypes worldwide, especially in China, the replicon model from the Huh-7.5.1 cell line integrating HCV 1b genome encoding the nonstructural proteins was chosen to evaluate the anti-HCV activities of 3-hydroxyquinazoline-2,4(1H,3H)-diones. The inhibitory rates of the compounds on HCV replicon cells were determined at concentrations of 25 μM and 10 μM, respectively. The broad-spectrum antiviral drug ribavirin (RBV) and the NS5B nucleoside inhibitor 2′-C-methyladenosine (2CMA) were selected as positive controls. The cytotoxicity of these compounds on replicon cells was determined using the cell counting kit-8 (CCK-8) assay.
HCV 1b replicon cells (Huh-7.5.1) containing luciferase reporter gene were kindly provided by Prof. Zhenghong Yuan (Key Laboratory of Medical Molecular Virology, Fudan University, Shanghai, China). The replicon cells were plated at 1.5 × 10^4 cells per well in a 48-well plate (Corning Inc., New York, NY, USA) at 5% CO2/37 °C. The culture medium was Dulbecco’s Modified Eagle Medium (DMEM, pH 7.3, Shanghai XP Biomed Ltd., Shanghai, China) containing 10% fetal bovine serum (Shanghai XP Biomed Ltd., Shanghai, China), 10^5 U/L penicillin, 0.1 g/L streptomycin, and 0.5 μg/mL blasticidin. After 12 h, the culture medium in each well was replaced with 300 μL of pre-prepared fresh culture medium containing test compound (dissolved in DMSO with specific concentration) or blank DMSO. The final concentration of DMSO in the culture medium in the plate was 0.1%. Each group was tested at least twice in parallel. Ribavirin and 2CMA were used as the positive controls. After incubating the drug-added plate at 5% CO2/37 °C for 72 h, the medium was removed, and each well was washed with 300 μL of phosphate buffer solution (PBS, Shanghai XP Biomed Ltd., Shanghai, China). The cells in each well were then lysed with 50 μL of 1× lysis buffer (E2820, Promega, Madison, WI, USA). Subsequently, 50 μL of 1× luciferase assay substrate (E2820, Promega, Madison, WI, USA) was mixed with 20 μL of the harvested cell lysates.
The inhibitory rates under at least six different concentration gradients were imported into GraphPad Prism 7.0 software to calculate the anti-HCV EC50 values of the compounds using the nonlinear fitting method.

[2] = Cytotoxicity assay (CCK-8) on replicon cells; type: cell-based; details: human, HCV 1b replicon cells (Huh-7.5.1); 50% cytotoxic concentration; CCK-8, HCV 1b replicon cells, 72 h
Description: as §1
(§2) The HCV 1b replicon cells were incubated and treated with test compounds or blank DMSO in a 48-well plate using the same materials and methods as described in the experimental procedure of anti-HCV assay. The final concentration of DMSO in each well was 0.1%. After 72 h of drug treatment, the culture medium in the well plate was removed, and cells in each well were washed with 300 μL of PBS. A total of 300 μL of pre-prepared fresh culture medium containing 30 μL CCK-8 reagent (Donjindo, Kumamoto, Japan) was added to each well, and the plate was incubated at 5% CO2/37 °C for 2 h. The OD (optical density) value of each well at 450 nm was measured using a multi-function microplate reader (SpectraMax M5, Molecular Devices, San Jose, CA, USA). The death ratio of each well was calculated using the following equation, in which ODcompound or ODblank represents the measured OD value of the compound group or the blank control (DMSO), respectively:death ratio = (1−ODcompound/ODblank) × 100%(2)
(§3) The cell death data under at least six different concentration gradients were imported into GraphPad Prism 7.0.0 software (GraphPad Software Inc., San Diego, CA, USA), and the CC50 (50% cytotoxic concentration) values were calculated using the nonlinear fitting method.

[3] = tested on: HCV 1b replicon cells (Huh-7.5.1); test: Cytotoxicity assay (CCK-8) on replicon cells; type: cell-based; details: replicon cells, tested concentrations
Description: as §1, §2, §3

[4] = tested on: HCV 1b replicon cells (Huh-7.5.1); test: Anti-HCV assay, HCV 1b replicon cells with luciferase reporter; type: cell-based, hepatitis C virus (HCV) subtype 1b; details: Hepatitis C virus, Huh-7.5.1, 72 h, inhibitory rate at 5 μM
[5] = target: T1, C-terminal His-tagged NS5BΔ21 from HCV 1b subtype (Hepatitis C virus genotype 1b, UniProt Q913V3); test: Thermal shift assay with NS5B protein; type: binding; details: for ΔTm at 50 µM: compound 50 μM; for ΔTm at 100 µM: compound 100 μM
T1 construct: C-terminal His-tagged NS5BΔ21 from HCV 1b subtype; His tag (C); made in house
T1 sequence (Q913V3 2420-2989, stated change not applied): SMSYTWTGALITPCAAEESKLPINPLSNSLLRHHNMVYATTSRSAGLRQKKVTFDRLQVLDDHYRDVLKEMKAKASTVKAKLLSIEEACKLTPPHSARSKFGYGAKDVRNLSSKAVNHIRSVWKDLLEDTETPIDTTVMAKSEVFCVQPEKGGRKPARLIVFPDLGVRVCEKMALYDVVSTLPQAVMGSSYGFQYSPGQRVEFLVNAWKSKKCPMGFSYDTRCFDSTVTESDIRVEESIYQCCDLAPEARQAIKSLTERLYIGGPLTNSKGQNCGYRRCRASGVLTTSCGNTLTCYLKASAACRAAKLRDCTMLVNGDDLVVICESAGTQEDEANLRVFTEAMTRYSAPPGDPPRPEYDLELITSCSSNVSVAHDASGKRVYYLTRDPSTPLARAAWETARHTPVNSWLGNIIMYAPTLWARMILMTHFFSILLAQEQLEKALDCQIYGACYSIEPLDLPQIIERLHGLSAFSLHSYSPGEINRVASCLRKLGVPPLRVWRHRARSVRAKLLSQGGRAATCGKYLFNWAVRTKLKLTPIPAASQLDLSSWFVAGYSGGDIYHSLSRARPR
Text: The stability of a protein system is enhanced after binding to its specific ligand, leading to an increase in the melting temperature (Tm). Taking advantage of this feature, the thermal shift assay was extensively used to assess the binding of small molecules to the protein targets. The metal ion chelators were thought to exert an anti-HCV effect by chelating with Mg^2+ in the catalytic center of NS5B [34, 36, 38]. […] C-terminal His-tagged NS5BΔ21 from HCV 1b subtype was used as the protein in the experiment. Compared with the blank control (DMSO), the fluorescence–temperature curves of the NS5B system in the presence of 21e (Figure 3A) and 21k (Figure 3B) at 50 μM, 100 μM, and 200 μM all shifted to the right of the axis. The Tm values of 21e and 21k increased in a concentration-dependent manner, presenting higher values than that of the blank control (Tm = 63.5 °C) at all tested concentrations.
C-terminal His-tagged NS5BΔ21 from HCV 1b subtype was expressed from pET28a HCR6 plasmid in our lab and dissolved in a Tris-HCl buffer (20 mm, pH 7.2) containing 150 mm NaCl. Then, 1 μL of corresponding concentration (1 mm, 2 mm, or 4 mm) of the test compound in DMSO or 1 μL DMSO alone was added to each well of a 96-well PCR plate (Shanghai Sangon Biotech Co., Ltd., Shanghai, China). Subsequently, 19 μL of pre-prepared PBS solution containing 10 mm MgCl2, 10× SYPRO® orange protein gel stain (Sigma-Aldrich, St. Louis, MO, USA), and 5 μM NS5B protein was added to each well and mixed. The final concentration of DMSO in each well was 5%. The PCR plate was covered with a high-permeable film, incubated at room temperature for 10 min, and then placed on the Applied Biosystems^TM 7500 Real-Time PCR System (Thermo Fisher Scientific, Waltham, MA, USA). The temperature was increased to 90 °C gradually, and the change curve of fluorescence intensity versus system temperature was recorded.

NS5B = details: cited from earlier work
[6] = set-up: method as in PMID 22100256; details: Figure 1; read-out: NS5B CC50; cited from earlier work
[7] = Hepatitis C virus, Huh-7.5.1, 50% effective concentration
[8] = Tm of compound group minus Tm of blank control, mean ± SD, three experiments
[9] = 5,6-dihydroxypyrimidine-4-carboxylic acids

## C[C@@]1(O)[C@H](O)[C@@H](CO)O[C@H]1n1cnc2c(N)ncnc21 [2CMA, 2′-C-methyladenosine, reference compound]
HCV; reported
  EC50: 0.3 µM
[1]; [7]
  EC50: 0.36 ± 0.03 µM
[2]
  CC50 at 72 h: > 10 µM

## O=c1c2ccccc2n(CCc2ccccc2Cl)c(=O)n1O [10c, 1-(2-Chlorophenethyl)-3-hydroxyquinazoline-2,4(1H,3H)-dione]
[1]; [7]
  EC50: > 12.2 µM
[1]; Hepatitis C virus
  inhibition at 10 µM: 33.4%
  inhibition at 25 µM: 67.8%
[3]
  cytotoxicity (in words): some cytotoxicity
[2]
  CC50 at 72 h: 12.2 µM

## O=c1c2ccccc2n(CCc2ccc(F)cc2)c(=O)n1O [10d, 1-(4-Fluorophenethyl)-3-hydroxyquinazoline-2,4(1H,3H)-dione]
[1]; [7]
  EC50: 13.3 ± 0.9 µM
[1]; Hepatitis C virus
  inhibition at 10 µM: 36.4%
  inhibition at 25 µM: 75.7%
[3]
  cytotoxicity (in words): some cytotoxicity
[2]
  CC50 at 72 h: 22.2 ± 4.6 µM

## O=c1[nH]c2cc(-c3ccc(C(F)(F)F)cc3)ccc2c(=O)n1O [21h, 3-Hydroxy-7-(4-(trifluoromethyl)phenyl)quinazoline-2,4(1H,3H)-dione]
[1]; 50% effective concentration
  EC50: 9.6 ± 2.7 µM
[1]; [7]
  EC50: < 10 µM
[1]; Hepatitis C virus
  inhibition at 10 µM: 53.8%
[3]
  cytotoxicity (in words): no cytotoxicity was observed
[2]
  CC50 at 72 h: > 50 µM
[4]
  inhibition at 5 µM: 5%

## O=c1[nH]c2cc(-c3cccc([N+](=O)[O-])c3)ccc2c(=O)n1O [21k, 3-Hydroxy-7-(3-nitrophenyl)quinazoline-2,4(1H,3H)-dione]
[1]; Hepatitis C virus
  inhibition at 10 µM: 70.6%
[5]; [8]
  ΔTm at 50 µM: 0.87 ± 0.12 °C
  ΔTm at 100 µM: 1.6 ± 0.08 °C
[5]; compound 200 μM, Tm of compound group minus Tm of blank control, mean ± SD, three experiments, read-out: ΔTm 200 μM
  ΔTm at 200 µM: 2.1 ± 0.44 °C
[5]; in Figure 3, blank control Tm = 63.5 °C
  Tm of NS5B complexed with compound: 65.6 °C
[2]
  CC50 at 72 h: 40.9 ± 3.5 µM
[4]
  inhibition at 5 µM: 55%

## O=c1[nH]c2cc(-c3cc4ccccc4o3)ccc2c(=O)n1O [21t, 7-(Benzofuran-2-yl)-3-hydroxyquinazoline-2,4(1H,3H)-dione]
[1]; Hepatitis C virus
  inhibition at 10 µM: 68.3%
  inhibition at 25 µM: 78.5%
[3]
  cytotoxicity (in words): no obvious cytotoxic effect; also recorded: No cytotoxic effect was observed
[2]
  CC50 at 72 h: > 50 µM

## Nc1ncnc2c1ncn2[C@@H]1O[C@H](COP(=O)(O)OP(=O)(O)O)[C@@H](O)[C@H]1O [ADP, adenosine diphosphate, reference compound]
[5]; [8]
  ΔTm at 50 µM: 0.44 ± 0.11 °C
  ΔTm at 100 µM: 0.62 ± 0.05 °C
[5]; compound 200 μM, Tm of compound group minus Tm of blank control, mean ± SD, three experiments
  ΔTm 200 μM: 0.88 ± 0.06 °C
[5]; read-out: ΔTm 200 μM, compound 200 μM, Tm of compound group minus Tm of blank control, mean ± SD, three experiments
  ΔTm at 200 µM: 0.87 °C

## NC(=O)c1ncn([C@@H]2O[C@H](CO)[C@@H](O)[C@H]2O)n1 [RBV, ribavirin, reference compound]
HCV; cellular level, reported
  EC50: 14 µM
[1]; [7]
  EC50: 20 ± 4.1 µM
[1]; Hepatitis C virus
  inhibition at 25 µM: 53.2%
[2]
  CC50 at 72 h: 45.5 ± 2.6 µM

## O=C(O)C(=O)CC(=O)c1ccccc1 [compound 1]
NS5B; α,γ-diketo acids
  IC50: 5.7 µM

## N#Cc1c(Cl)cc(Cl)cc1COc1cccc(C(=O)CC(=O)C(=O)O)c1 [compound 2]
NS5B; α,γ-diketo acids
  IC50: 0.045 µM

## O=C(O)c1occc(=O)c1O [compound 3]
HCV; cellular level
  EC50: > 50 µM
NS5B; meconic acids
  IC50: 2.25 µM

## O=C(O)c1nc(-c2cccs2)nc(O)c1O [compound 4]
HCV; cellular level
  EC50: > 100 µM
NS5B; [9]
  IC50: 2.6 µM

## O=C(NCc1ccccc1Cl)Nc1cscc1-c1nc(O)c(O)c(C(=O)O)n1 [compound 5]
HCV; cellular level
  EC50: 9.3 µM
NS5B; [9]
  IC50: 0.15 µM

## O=C1Cc2cc(-c3ccco3)ccc2C(=O)N1O [compound 6]
HCV; cellular level, reported
  EC50: 1.9 µM
[6]
  CC50: 13 µM
NS5B; 2-hydroxyisoquinoline-1,3-diones
  IC50: 1.3 µM
